In article PMC5458211, “Mitochondrial VDAC1-based peptides: Attacking oncogenic properties in glioblastoma” (Oncotarget, 2017):
Non-standard residues stand in square brackets, D forms with d. Residues, ends and D or L forms follow the SMILES beside them.

Tests used:
[1] = tested on: U-87MG cells; assay: Apoptosis by acridine orange/ethidium bromide staining, U-87MG; assay type: cell-based, human; conditions: 3 h, mean ± SE (n=3), DMSO control 9.8 ± 5.3
Protocol: Figure 2 Mode of action of VDAC1-based peptides – interacting with- and detaching HK, releasing Cyto c, decreasing ATP level and inducing apoptosis A. Purified HK-II was fluorescently labeled using the NanoTemper protein-labeling Kit BLUE. […] Then, 3-5 μl of the samples were loaded into MST-grade glass capillaries and thermophoresis was measured using a Monolith-NT115 apparatus, as described in Materials and methods available online in Supplemental information. […] The final DMSO concentration in control and peptide-treated cells was 0.07%. Fixed cells were visualized using confocal microscopy (Olympus 1×81), as described in Materials and Methods available online in Supplemental information. Arrows indicate cells with diffusion of HK-I-GFP. C. […] Anti-GAPDH antibodies were used to verify the cytosolic extracts. The levels of HK in the supernatants were quantified and are presented as relative units. D. D-ΔN-Ter-Antp induces mitochondrial inner membrane depolarization analyzed as described in Materials and Methods available online in Supplemental information. U-87MG cells were incubated for 3 h with the indicated concentrations of D-ΔN-Ter-Antp or with FCCP (1 h, 25 μM). Cells then were analyzed for Δψ using TMRM. Δψ is presented as percentage of control. Results = mean ± SE (n=3) (*** p≤0.001, ****p ≤0.0001). […] Cellular ATP levels are presented as percentage of control. Results = mean ± SE (n=2 or 3) (* p≤0.05, ** p≤0.01). […] Release of Cyto c from the mitochondria was analyzed by immunostaining using anti-Cyto c antibodies and confocal microscopy (Olympus 1×81) as described in Materials and Methods available online in Supplemental information. Arrows indicate cells showing diffusion of Cyto c. […] Arrows and arrowheads indicate cells with membrane blebbing (early apoptotic state) and late apoptotic states, respectively. Quantification of apoptosis in control and peptide's treated cells are presented bellow the images. Results = mean ± SE (n=3) (** p≤0.01, *** p≤0.001, **** p≤0.0001).
Cells (6×10^5 /ml) were incubated in 500 μl serum-free medium with the peptide of interest for 6 h at 37°C in the presence of 5% CO2. The cells were then trypsinized, centrifuged (1500xg, 5 min), washed with PBS and analyzed for cell death using propidium iodide (PI) staining and flow cytometer (Beckton-Dickinson, San Jose, CA) and BD CellQuest Pro software. Apoptotic cell death was also analyzed by PI and annexin V-FITC staining, and by acridine orange and ethidium bromide staining and light microscopy (Olympus LX2-KSP).

[2] = tested on: Neuro-2a cells; assay: Cell death by PI staining and flow cytometry, Neuro-2a; assay type: cell-based; conditions: mouse neuroblastoma, 6 h at 37°C, serum-free medium, Suppl Fig 1
Protocol: Cells (6×10^5 /ml) were incubated in 500 μl serum-free medium with the peptide of interest for 6 h at 37°C in the presence of 5% CO2. The cells were then trypsinized, centrifuged (1500xg, 5 min), washed with PBS and analyzed for cell death using propidium iodide (PI) staining and flow cytometer (Beckton-Dickinson, San Jose, CA) and BD CellQuest Pro software. Apoptotic cell death was also analyzed by PI and annexin V-FITC staining, and by acridine orange and ethidium bromide staining and light microscopy (Olympus LX2-KSP). […]
overnight at 4°C with primary antibodies (sources and After rinsing in water, the sections were counter-stained dilutions used detailed in Table S2) and washed with hematoxylin, and mounted with mounting medium.
PBST. For IHC, endogenous peroxidase activity was Finally, the sections were observed under a microscope blocked by incubating the sections in 3% H2O2 for 15 min. (Leica DM2500) and images were collected at 20× After washing thoroughly with PBST, the sections were magnification with the same light intensity and exposure incubated with the appropriate secondary antibodies for 2 time. Non-specific control experiments were carried out h. […]
Ter-Antp (●) peptide in serum-free appropriate growth medium for 6 h at 37°C. Cells were harvested, washed twice with PBS and cell death was analyzed by propidium iodide (PI) staining and ﬂow cytometry. […]

[3] = tested on: cellular ATP levels in U-87MG cells; assay: Cellular ATP levels (CellTiter-Glo); assay type: cell-based, human; conditions: 3 h, % of control, n=2 or 3
Protocol: Figure 2 Mode of action of VDAC1-based peptides – interacting with- and detaching HK, releasing Cyto c, decreasing ATP level and inducing apoptosis A. Purified HK-II was fluorescently labeled using the NanoTemper protein-labeling Kit BLUE. […] Then, 3-5 μl of the samples were loaded into MST-grade glass capillaries and thermophoresis was measured using a Monolith-NT115 apparatus, as described in Materials and methods available online in Supplemental information. […] The final DMSO concentration in control and peptide-treated cells was 0.07%. Fixed cells were visualized using confocal microscopy (Olympus 1×81), as described in Materials and Methods available online in Supplemental information. […] The levels of HK in the supernatants were quantified and are presented as relative units. D. D-ΔN-Ter-Antp induces mitochondrial inner membrane depolarization analyzed as described in Materials and Methods available online in Supplemental information. […] Cells then were analyzed for Δψ using TMRM. Δψ is presented as percentage of control. […] Release of Cyto c from the mitochondria was analyzed by immunostaining using anti-Cyto c antibodies and confocal microscopy (Olympus 1×81) as described in Materials and Methods available online in Supplemental information. […] Quantification of apoptosis in control and peptide's treated cells are presented bellow the images. […]

Row | Compound | Apoptosis, % ([1]; 3 μM) [%] | Apoptosis, % ([1]; 5 μM) [%] | cell death, Neuro-2a [2] | decrease in cellular ATP levels [3]
1 | CC[C@@H](C)[C@@H](NC(=O)[C@@H](CCCCN)NC(=O)[C@H](NC(=O)[C@@H](CCC(N)=O)NC(=O)[C@@H](CCCNC(=N)N)NC(=O)[C@@H](CC(C)C)NC(=O)CNC(=O)[C@@H](Cc1ccccc1)NC(=O)CNC(=O)[C@@H](Cc1ccc(O)cc1)NC(=O)CNC(=O)[C@@H](CCCCN)NC(=O)[C@H](NC(=O)[C@@H](Cc1ccccc1)NC(=O)[C@H](NC(=O)[C@@H](CC(=O)O)NC(=O)[C@H](N)CCCNC(=N)N)C(C)C)[C@H](C)O)[C@H](C)CC)C(=O)N[C@H](Cc1c[nH]c2ccccc12)C(=O)N[C@H](Cc1ccccc1)C(=O)N[C@H](CCC(N)=O)C(=O)N[C@H](CC(N)=O)C(=O)N[C@H](CCCNC(=N)N)C(=O)N[C@H](CCCNC(=N)N)C(=O)N[C@H](CCSC)C(=O)N[C@H](CCCCN)C(=O)N[C@H](Cc1c[nH]c2ccccc12)C(=O)N[C@H](CCCCN)C(=O)N[C@H](CCCCN)C(=O)O [D-ΔN-Ter-Antp] (H-[dR][dD][dV][dF][dT][dK]G[dY]G[dF]G[dL][dR][dQ][dI][dK][dI][dW][dF][dQ][dN][dR][dR][dM][dK][dW][dK][dK]-OH; N-terminus and C-terminus assumed) | 45.4 ± 2.6 | 63.4 ± 3.8 | effectively induce cell death | about 80%
2 | CC[C@H](C)[C@H](NC(=O)[C@H](C)NC(=O)[C@@H](N)Cc1c[nH]cn1)C(=O)N[C@@H](Cc1ccc(O)cc1)C(=O)N1CCC[C@H]1C(=O)N[C@@H](CCCNC(=N)N)C(=O)N[C@@H](Cc1c[nH]cn1)C(=O)N[C@@H](CO)C(=O)N[C@@H](Cc1c[nH]c2ccccc12)C(=O)N[C@H](C(=O)N[C@@H](Cc1c[nH]c2ccccc12)C(=O)N[C@@H](CCC(=O)O)C(=O)N[C@H](CCCCN)C(=O)N[C@H](CCCCN)C(=O)N[C@H](CC(C)C)C(=O)N[C@H](CCC(=O)O)C(=O)N[C@@H](C(=O)N[C@H](C)C(=O)N[C@@H](C(=O)N[C@H](CC(N)=O)C(=O)N[C@H](CC(C)C)C(=O)N[C@H](C)C(=O)N[C@H](Cc1c[nH]c2ccccc12)C(=O)N[C@@H](C(=O)N[C@H](C)C(=O)NCC(=O)N[C@H](CC(N)=O)C(=O)N[C@H](CO)C(=O)N[C@H](CC(N)=O)C(=O)N[C@@H](CCCCN)C(=O)N[C@@H](Cc1c[nH]c2ccccc12)C(=O)N[C@H](C(=O)N[C@@H](Cc1c[nH]c2ccccc12)C(=O)N[C@@H](CCCCN)C(=O)O)[C@@H](C)O)[C@H](C)O)C(C)C)[C@H](C)O)[C@@H](C)O [Tf-D-LP4] | 55.8 ± 1.0 | 73.9 ± 5.7 | effectively induce cell death | about 50%
